# Target: T1, MC4 (Homo sapiens, UniProt P32245)
# T1 construct: purchased Perkin Elmer BioSignal; host or cells: HEK 293
# Test: GPCR radioligand binding (RLB) assay, melanocortin MC4, [125I]NDP-αMSH
# Details: for MC4 Inhibition at 4.0 Micromolar: 4.0 micromolar compound
# Description: Recombinant human receptors expressed in HEK 293 cells were used for all experiments. Receptor membrane preparations were purchased from Perkin Elmer BioSignal. The labelled ligand used in somatostatin GPCR RLB assays was [^125I]SST-14 and in melanocortin assays was [^125I]NDP-αMSH. All assays were done in a 96-well plate format using either glass fiber filter mats or filter plates. All reagents purchased were of the highest quality.
# Specific assay buffer, incubation and washing conditions were optimized for each receptor however they all followed the same general format. The procedures for both filter mat and filter plate formats are based on the receptor manufacturers recommendations or those described extensively in the literature. The procedures are briefly outlined below.
# In assays where filter mats are used we incubate receptor membranes, assay buffer and [^125I] labelled ligand in 96 well microplates. Add compounds to incubation mixture and continue incubation for optimized period. Presoak Filter mat GF/B in 0.5% PEI for ˜2 hr at 4° C. On completion of assay mixture incubation add additional 100 μL/well of assay buffer immediately prior to filtration. Filter the assay mixture onto the GF/B filter mat using a cell harvester. Dry the filter mats prior to sealing them into a scintillation counting bag with scintillant. Radioactivity in each well is detected by liquid scintillation counting.
# In assays where filter plates are used Multiscreen glass fiber filter plates (Millipore, Cat No MAFCNOB10) are precoated with 0.5% PEI for ˜2 hr at 4° C. All wells are then washed with 200 µl/well assay buffer and filtered using the Multiscreen Separation System. Subsequently receptor membranes, assay buffer and labelled ligands are added to the wells and equilibrated. Compounds for testing are then added to the mixture and incubation is continued for an optimized time. Plates are then put into the Multiscreen Separation System and the assay mixture is filtered through the plate under vacuum. Each well is then washed several times with assay buffer. Plates are then dried prior to putting sealing tape onto the bottom of the plate. Scintillant is added to each well and radioactivity measured by liquid scintillation counting.
# Raw data was analysed according to standard methods using either GraphPad Prism software or IDDBS ActivityBase software.
# [1] = 10 micromolar compound, recombinant human receptor membranes (HEK 293)
# T1 sequence (P32245 whole entry): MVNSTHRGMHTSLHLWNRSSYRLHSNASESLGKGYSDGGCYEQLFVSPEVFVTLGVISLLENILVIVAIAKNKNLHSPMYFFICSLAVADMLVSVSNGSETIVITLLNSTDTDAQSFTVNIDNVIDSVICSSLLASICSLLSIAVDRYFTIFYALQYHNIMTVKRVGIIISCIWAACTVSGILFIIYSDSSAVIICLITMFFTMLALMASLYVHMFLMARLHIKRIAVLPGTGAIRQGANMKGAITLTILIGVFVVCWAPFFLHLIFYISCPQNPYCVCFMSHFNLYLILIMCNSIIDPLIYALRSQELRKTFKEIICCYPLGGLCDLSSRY
compound,measurement,setting,value
COC1C(O)C(COCc2ccc(-c3ccccc3)cc2)OC(OCc2ccc(Cl)cc2)C1NC(=O)CNC(=N)N (stereo not shown) [Compound 83],MC4 inhibition at 10 micromolar,[1],+ (Indicates inhibition greater than . . . 50%)
COC1C(O)C(COCc2ccc(-c3ccccc3)cc2)OC(OCc2ccc(Cl)cc2)C1NC(=O)CCCN (stereo not shown) [Compound 85],MC4 inhibition at 10 micromolar,[1],+ (Indicates inhibition greater than . . . 50%)
CO[C@H]1[C@H](O)[C@@H](COCc2ccc(Cl)cc2)OC(OCc2ccc(Cl)cc2)[C@@H]1NC(=O)CNC(=N)N (stereo partly shown) [Compound 92],MC4 inhibition at 10 micromolar,[1],+ (Indicates inhibition greater than . . . 50%)
CO[C@H]1[C@H](O)[C@@H](COCc2ccc(Cl)cc2)OC(OCc2ccc(Cl)cc2)[C@@H]1NC(=O)CCNC(=N)N (stereo partly shown) [Compound 93],MC4 inhibition at 10 micromolar,[1],+ (Indicates inhibition greater than . . . 50%)
CO[C@H]1[C@H](O)[C@@H](COCc2ccc(Cl)cc2)OC(OCc2ccc(Cl)cc2)[C@@H]1NC(=O)CCCNC(=N)N (stereo partly shown) [Compound 95],MC4 inhibition at 10 micromolar,[1],+ (Indicates inhibition greater than . . . 50%)
CO[C@H]1[C@H](O)[C@@H](COCc2ccc(-c3ccccc3)cc2)OC(OCCc2ccccc2)[C@@H]1NC(=O)CNC(=N)N (stereo partly shown) [Compound 96],MC4 inhibition at 10 micromolar,[1],+ (Indicates inhibition greater than . . . 50%)
CO[C@H]1[C@H](O)[C@@H](COCc2ccc(-c3ccccc3)cc2)OC(OCCc2ccccc2)[C@@H]1NC(=O)CCNC(=N)N (stereo partly shown) [Compound 97],MC4 inhibition at 10 micromolar,[1],+ (Indicates inhibition greater than . . . 50%)
CO[C@H]1[C@H](O)[C@@H](COCc2ccc(-c3ccccc3)cc2)OC(OCCc2ccccc2)[C@@H]1NC(=O)CCCNC(=N)N (stereo partly shown) [Compound 99],MC4 inhibition at 10 micromolar,[1],+ (Indicates inhibition greater than . . . 50%)
CO[C@H]1[C@H](O)[C@@H](COCc2ccc3ccccc3c2)OC(OCCc2ccccc2)[C@@H]1NC(=O)CNC(=N)N (stereo partly shown) [Compound 100],MC4 inhibition at 10 micromolar,[1],+ (Indicates inhibition greater than . . . 50%)
CO[C@H]1[C@H](O)[C@@H](COCc2ccc3ccccc3c2)OC(OCCc2ccccc2)[C@@H]1NC(=O)CCNC(=N)N (stereo partly shown) [Compound 101],MC4 inhibition at 10 micromolar,[1],+ (Indicates inhibition greater than . . . 50%)
CO[C@H]1[C@H](O)[C@@H](COCc2ccc(Cl)cc2)OC(OCCc2ccccc2)[C@@H]1NC(=O)CNC(=N)N (stereo partly shown) [Compound 104],MC4 inhibition at 10 micromolar,[1],+ (Indicates inhibition greater than . . . 50%)
CO[C@H]1[C@H](O)[C@@H](COCc2ccc(Cl)cc2)OC(OCCc2ccccc2)[C@@H]1NC(=O)CCNC(=N)N (stereo partly shown) [Compound 105],MC4 inhibition at 10 micromolar,[1],+ (Indicates inhibition greater than . . . 50%)
CO[C@H]1[C@H](O)[C@@H](COCc2ccc(Cl)cc2)OC(OCCc2ccccc2)[C@@H]1NC(=O)CCCNC(=N)N (stereo partly shown) [Compound 107],MC4 inhibition at 10 micromolar,[1],+ (Indicates inhibition greater than . . . 50%)
CO[C@H]1[C@H](O)[C@@H](COCc2cccc(O)c2)OC(OCc2ccc(-c3ccccc3)cc2)[C@@H]1NC(=O)CNC(=N)N (stereo partly shown) [Compound 108],MC4 inhibition at 10 micromolar,[1],+ (Indicates inhibition greater than . . . 50%)
CO[C@H]1[C@H](O)[C@@H](COCc2cccc(O)c2)OC(OCc2ccc(Cl)cc2)[C@@H]1NC(=O)CCNC(=N)N (stereo partly shown) [Compound 110],MC4 inhibition at 10 micromolar,[1],+ (Indicates inhibition greater than . . . 50%)
CO[C@H]1[C@H](O)[C@@H](COCc2ccc(-c3ccccc3)cc2)OC(OCc2cccc(O)c2)[C@@H]1NC(=O)CNC(=N)N (stereo partly shown) [Compound 112],MC4 inhibition at 10 micromolar,[1],+ (Indicates inhibition greater than . . . 50%)
CO[C@H]1[C@H](O)[C@@H](COCc2ccc(-c3ccccc3)cc2)OC(OCc2cccc(O)c2)[C@@H]1NC(=O)CCNC(=N)N (stereo partly shown) [Compound 113],MC4 inhibition at 10 micromolar,[1],+ (Indicates inhibition greater than . . . 50%)
CO[C@H]1[C@H](O)[C@@H](COCc2ccc(-c3ccccc3)cc2)OC(OCc2cccc(O)c2)[C@@H]1NC(=O)CCCN (stereo partly shown) [Compound 114],MC4 inhibition at 10 micromolar,[1],+ (Indicates inhibition greater than . . . 50%)
CO[C@H]1[C@H](O)[C@@H](COCc2ccc3ccccc3c2)OC(OCc2cccc(O)c2)[C@@H]1NC(=O)CCCNC(=N)N (stereo partly shown) [Compound 115],MC4 inhibition at 10 micromolar,[1],+ (Indicates inhibition greater than . . . 50%)
CO[C@H]1[C@H](O)[C@@H](COCc2ccc3ccccc3c2)OC(OCc2cccc(O)c2)[C@@H]1NC(=O)CCNC(=N)N (stereo partly shown) [Compound 116],MC4 inhibition at 10 micromolar,[1],+ (Indicates inhibition greater than . . . 50%)
CO[C@H]1[C@H](O)[C@@H](COCc2ccc3ccccc3c2)OC(OCc2cccc(O)c2)[C@@H]1NC(=O)CCCNC(=N)N (stereo partly shown) [Compound 117],MC4 inhibition at 10 micromolar,[1],+ (Indicates inhibition greater than . . . 50%)
CSC1OC(COCc2ccc3ccccc3c2)C(O)C(OCc2ccc(-c3ccccc3)cc2)C1NC(=O)CN (stereo not shown) [Compound 185],MC4 inhibition at 10 micromolar,[1],+ (Indicates inhibition greater than . . . 50%)
COCC1OC(OCCc2ccccc2)C(NC(=O)CNC(=N)N)C(OCc2ccccc2)C1O (stereo not shown) [Compound 261],MC4 inhibition at 10 micromolar,"10 micromolar, Example Library 4",+ (Indicates inhibition greater than . . . 50%)
CSC1OC(COC(=O)Cc2ccccc2)C(O)C(OCc2cccc(N)c2)C1NCc1ccccc1 (stereo not shown) [Compound 308],MC4 inhibition at 10 micromolar,[1],+ (Indicates inhibition greater than . . . 50%)
CSC1OC(COC(=O)c2c[nH]c3ccccc23)C(O)C(OCc2cccc(N)c2)C1NCc1ccccc1 (stereo not shown) [Compound 309],MC4 inhibition at 10 micromolar,[1],+ (Indicates inhibition greater than . . . 50%)
CSC1OC(COC(=O)c2c[nH]c3ccccc23)C(O)C(OCc2cccc(N)c2)C1NCc1ccc(Cl)cc1 (stereo not shown) [Compound 314],MC4 inhibition at 10 micromolar,[1],+ (Indicates inhibition greater than . . . 50%)
CSC1O[C@H](COCc2ccccc2)[C@@H](O)[C@H](OCc2cccc(N)c2)[C@H]1NC(=O)Cc1ccccc1 (stereo partly shown) [Compound 317],MC4 inhibition at 10 micromolar,[1],+ (Indicates inhibition greater than . . . 50%)
CSC1O[C@H](COCc2ccccc2)[C@@H](O)[C@H](OCc2cccc(N)c2)[C@H]1NC(=O)c1c[nH]c2ccccc12 (stereo partly shown) [Compound 318],MC4 inhibition at 10 micromolar,[1],+ (Indicates inhibition greater than . . . 50%)
CSC1O[C@H](COCc2ccc(Cl)cc2)[C@@H](O)[C@H](OCc2cccc(N)c2)[C@H]1NC(=O)c1c[nH]c2ccccc12 (stereo partly shown) [Compound 323],MC4 inhibition at 10 micromolar,[1],+ (Indicates inhibition greater than . . . 50%)
CSC1O[C@H](COCc2ccc(Cl)cc2)[C@@H](O)[C@H](OCc2cccc(N)c2)[C@H]1NC(=O)CCC1CNc2ccccc21 (stereo partly shown) [Compound 325],MC4 inhibition at 10 micromolar,[1],+ (Indicates inhibition greater than . . . 50%)
CSC1OC(COCc2cccc(N)c2)C(O)C(OCc2ccccc2)C1NC(=O)c1c[nH]c2ccccc12 (stereo not shown) [Compound 328],MC4 inhibition at 10 micromolar,[1],+ (Indicates inhibition greater than . . . 50%)
CSC1OC(COCc2cccc(N)c2)C(O)C(OCc2ccc(Cl)cc2)C1NC(=O)CCC1CNc2ccccc21 (stereo not shown) [Compound 332],MC4 inhibition at 10 micromolar,[1],+ (Indicates inhibition greater than . . . 50%)
CSC1O[C@H](COCc2cccc(N)c2)[C@@H](O)[C@H](OCc2ccccc2)[C@H]1NC(=O)c1ccccc1 (stereo partly shown) [Compound 333],MC4 inhibition at 10 micromolar,[1],+ (Indicates inhibition greater than . . . 50%)
CSC1O[C@H](COCc2cccc(N)c2)[C@@H](O)[C@H](OCc2ccccc2)[C@H]1NC(=O)Cc1ccccc1 (stereo partly shown) [Compound 334],MC4 inhibition at 10 micromolar,[1],+ (Indicates inhibition greater than . . . 50%)
CSC1O[C@H](COCc2cccc(N)c2)[C@@H](O)[C@H](OCc2ccccc2)[C@H]1NC(=O)/C=C/c1ccccc1 (stereo partly shown) [Compound 335],MC4 inhibition at 10 micromolar,[1],+ (Indicates inhibition greater than . . . 50%)
CSC1O[C@H](COCc2cccc(N)c2)[C@@H](O)[C@H](OCc2ccc(Cl)cc2)[C@H]1NC(=O)/C=C/c1ccccc1 (stereo partly shown) [Compound 340],MC4 inhibition at 10 micromolar,[1],+ (Indicates inhibition greater than . . . 50%)
COC1C(O)C(COCc2ccc3ccccc3c2)OC(OCc2ccc(Cl)cc2)C1NC(=O)C(N)CN (stereo not shown) [Compound 342],MC4 Inhibition at 4.0 Micromolar,,+ (Indicates inhibition greater than . . . 50%)
COC1C(O)C(COCc2ccc3ccccc3c2)OC(OCc2ccc(Cl)cc2)C1NCC(=O)C1CCCN1 (stereo not shown) [Compound 343],MC4 Inhibition at 4.0 Micromolar,,+ (Indicates inhibition greater than . . . 50%)
COC1C(O)C(COCc2ccc3ccccc3c2)OC(OCc2ccc(Cl)cc2)C1NC(=O)C1CCCN(C(=N)N)C1 (stereo not shown) [Compound 344],MC4 Inhibition at 4.0 Micromolar,,+ (Indicates inhibition greater than . . . 50%)
COC1C(O)C(COCc2ccc3ccccc3c2)OC(OCc2ccc(Cl)cc2)C1NC(=O)CNC(=N)N (stereo not shown) [Compound 345],MC4 Inhibition at 4.0 Micromolar,,+ (Indicates inhibition greater than . . . 50%)
COC1C(O)C(COCc2ccc3ccccc3c2)OC(OCc2ccc(Cl)cc2)C1NC(=O)C(N)CN (stereo not shown) [Compound 346],MC4 Inhibition at 4.0 Micromolar,,+ (Indicates inhibition greater than . . . 50%)
COC1C(O)C(COCc2ccc3ccccc3c2)OC(OCc2ccc(Cl)cc2)C1NCC(=O)C1CCCN1 (stereo not shown) [Compound 347],MC4 Inhibition at 4.0 Micromolar,,+ (Indicates inhibition greater than . . . 50%)
COC1C(O)C(COCc2ccc3ccccc3c2)OC(OCc2ccc(Cl)cc2)C1NC(=O)C1CCN(C(=N)N)CC1 (stereo not shown) [Compound 348],MC4 Inhibition at 4.0 Micromolar,,+ (Indicates inhibition greater than . . . 50%)

# Source: patent publication US7994140B2, “Classes of compounds that interact with GPCRs” (Alchemia Limited, priority 2002, dated 2011)
